The source made the active and inactive calls. The calls are words filed in the database; no cut-off is given here. Non-standard residues stand in square brackets, D forms with d. Residues, ends and D or L forms follow the SMILES beside them. Phe(4-NH2) = Nc1ccc(C[C@H](N)C(=O)O)cc1
Assays:
[1] = biological target: T1, Angiotensin II receptor (AT-1) type-1 (Rattus norvegicus, UniProt P29089+P25095); test: Displacement of [125I]Ang2 from AT1 receptor in rat liver membrane; format: cell membranes
T1 sequence (P29089 whole entry): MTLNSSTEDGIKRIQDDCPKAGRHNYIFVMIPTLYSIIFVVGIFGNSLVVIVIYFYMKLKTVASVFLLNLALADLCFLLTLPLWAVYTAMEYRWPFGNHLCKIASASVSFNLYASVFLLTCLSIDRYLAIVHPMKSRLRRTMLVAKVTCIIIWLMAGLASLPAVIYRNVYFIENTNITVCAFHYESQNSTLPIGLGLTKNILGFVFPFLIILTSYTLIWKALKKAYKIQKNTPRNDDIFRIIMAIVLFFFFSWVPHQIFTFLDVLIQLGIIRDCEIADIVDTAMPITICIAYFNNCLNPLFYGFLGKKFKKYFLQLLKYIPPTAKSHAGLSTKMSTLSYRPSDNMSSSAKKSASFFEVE
T1 sequence (P25095 whole entry): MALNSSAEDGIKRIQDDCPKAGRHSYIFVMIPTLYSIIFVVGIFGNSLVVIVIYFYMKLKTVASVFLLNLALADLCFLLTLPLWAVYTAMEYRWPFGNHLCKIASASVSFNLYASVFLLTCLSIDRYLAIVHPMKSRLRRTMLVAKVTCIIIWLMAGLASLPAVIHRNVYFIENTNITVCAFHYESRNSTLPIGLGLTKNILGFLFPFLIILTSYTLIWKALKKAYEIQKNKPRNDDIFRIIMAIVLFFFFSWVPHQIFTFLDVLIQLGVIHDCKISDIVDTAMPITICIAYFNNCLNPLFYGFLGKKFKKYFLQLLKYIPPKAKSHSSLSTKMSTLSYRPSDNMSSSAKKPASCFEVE

[2] = biological target: T2, Type-1 angiotensin II receptor (Oryctolagus cuniculus) (UniProt P34976); test: Agonist activity at AT1 receptor measured as contraction of rabbit thoracic aorta at 3.0 nM to 3.0 uM; format: functional, tissue-based
T2 sequence (whole entry): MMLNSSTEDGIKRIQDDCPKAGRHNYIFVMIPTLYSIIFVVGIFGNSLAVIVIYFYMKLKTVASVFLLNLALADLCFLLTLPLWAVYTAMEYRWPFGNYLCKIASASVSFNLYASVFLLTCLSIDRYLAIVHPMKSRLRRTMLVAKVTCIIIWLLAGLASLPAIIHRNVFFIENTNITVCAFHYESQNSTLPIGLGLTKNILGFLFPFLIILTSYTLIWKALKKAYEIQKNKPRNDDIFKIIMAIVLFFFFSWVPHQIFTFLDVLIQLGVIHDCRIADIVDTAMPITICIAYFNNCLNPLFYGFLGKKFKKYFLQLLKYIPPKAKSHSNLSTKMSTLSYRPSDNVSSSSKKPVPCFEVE

Ki [1]	Activity [2]	SMILES
2108 nM		CC[C@H](C)[C@@H]1Nc2c(Cc3ccc(O)cc3)cc(NC(=O)[C@H](CCCN=C(N)N)NC(=O)[C@@H](N)CC(=O)O)cc2CN(CC(=O)N2CCC[C@H]2C(=O)N[C@@H](Cc2ccccc2)C(=O)O)C1=O
> 10000 nM		CC[C@H](C)[C@H](NC(=O)[C@H](Cc1ccc(O)cc1)NC(=O)[C@@H](NC(=O)[C@H](CCCN=C(N)N)NC(=O)[C@@H](N)CC(=O)O)C(C)C)C(=O)N[C@@H](Cc1ccc(N)cc1)C(=O)N1CCC[C@H]1C(=O)N[C@@H](Cc1ccccc1)C(=O)O (H-DRVYI[Phe(4-NH2)]PF-OH)
1668 nM		CC[C@H](C)[C@@H]1Nc2c(Cc3ccc(O)cc3)cc(NC(=O)[C@H](CCCN=C(N)N)NC(=O)[C@@H](N)CC(=O)O)cc2CN(CC(=O)N[C@@H](Cc2c[nH]cn2)C(=O)N2CCC[C@H]2C(=O)N[C@@H](Cc2ccccc2)C(=O)O)C1=O
14.9 nM	inactive	CC[C@H](C)[C@@H]1Nc2c(Cc3ccc(O)cc3)cc(NC(=O)[C@@H](NC(=O)[C@H](CCCN=C(N)N)NC(=O)[C@@H](N)CC(=O)O)C(C)C)cc2CN(CC(=O)N[C@@H](Cc2c[nH]cn2)C(=O)N2CCC[C@H]2C(=O)N[C@@H](Cc2ccccc2)C(=O)O)C1=O

Source: ChEMBL document CHEMBL1137376 (J Med Chem, 2006)
